{"source": "paper PMC4639919", "about": "(Neurochemical research, 2015)", "target": "α6β2* nicotinic acetylcholine receptor (α6 subunit) (Rattus norvegicus, UniProt P12390+P43143)", "sequence (P43143 31-493 limits assumed)": "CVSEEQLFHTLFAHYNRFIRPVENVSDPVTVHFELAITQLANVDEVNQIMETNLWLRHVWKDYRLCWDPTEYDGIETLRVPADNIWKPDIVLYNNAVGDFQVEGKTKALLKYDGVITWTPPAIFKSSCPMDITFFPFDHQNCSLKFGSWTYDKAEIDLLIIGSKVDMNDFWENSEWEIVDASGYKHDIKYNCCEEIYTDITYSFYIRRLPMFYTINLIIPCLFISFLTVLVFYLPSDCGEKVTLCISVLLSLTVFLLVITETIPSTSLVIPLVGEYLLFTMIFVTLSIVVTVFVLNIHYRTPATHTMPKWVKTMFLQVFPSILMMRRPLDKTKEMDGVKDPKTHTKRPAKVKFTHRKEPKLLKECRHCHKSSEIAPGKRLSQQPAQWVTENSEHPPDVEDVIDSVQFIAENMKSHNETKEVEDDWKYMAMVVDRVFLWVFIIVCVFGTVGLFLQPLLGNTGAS", "sequence (P12390 25-500 limits assumed)": "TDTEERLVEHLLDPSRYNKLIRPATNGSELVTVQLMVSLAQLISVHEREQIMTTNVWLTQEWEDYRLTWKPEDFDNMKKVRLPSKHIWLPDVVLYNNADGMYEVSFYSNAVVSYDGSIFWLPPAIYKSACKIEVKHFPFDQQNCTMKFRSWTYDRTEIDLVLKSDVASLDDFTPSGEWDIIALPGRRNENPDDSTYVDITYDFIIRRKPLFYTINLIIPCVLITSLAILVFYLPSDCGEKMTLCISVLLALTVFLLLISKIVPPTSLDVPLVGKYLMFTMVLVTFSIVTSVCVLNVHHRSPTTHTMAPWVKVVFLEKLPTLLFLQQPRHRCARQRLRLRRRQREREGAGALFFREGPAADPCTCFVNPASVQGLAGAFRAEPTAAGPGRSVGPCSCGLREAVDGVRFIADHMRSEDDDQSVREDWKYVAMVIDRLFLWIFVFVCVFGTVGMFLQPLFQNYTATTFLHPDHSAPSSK"}
{"compound": "CC1=CCCN(CCCCCCCCCCN2CCC=C(C)C2)C1", "note": "[r-bPiDI, 1,10-bis(3-methyl-5,6-dihydropyridin-1(2H)-yl)decane]", "values": [{"measurement": "IC50", "value": "37.5 ± 18.7", "unit": "nM"}]}
